Columns and labels:
[1] = target: T1, Human bradykinin B1 receptor cell line (Homo sapiens, UniProt P46663); test: Bradykinin B1 receptor antagonistic activity by intracellular calcium assay (Fluo-4, LDBK agonist); type: cell-based; settings: human B1 receptor cells, Fluo-4 calcium assay, agonist LDBK at EC80, with washing step
T1 sequence (P46663 1-353): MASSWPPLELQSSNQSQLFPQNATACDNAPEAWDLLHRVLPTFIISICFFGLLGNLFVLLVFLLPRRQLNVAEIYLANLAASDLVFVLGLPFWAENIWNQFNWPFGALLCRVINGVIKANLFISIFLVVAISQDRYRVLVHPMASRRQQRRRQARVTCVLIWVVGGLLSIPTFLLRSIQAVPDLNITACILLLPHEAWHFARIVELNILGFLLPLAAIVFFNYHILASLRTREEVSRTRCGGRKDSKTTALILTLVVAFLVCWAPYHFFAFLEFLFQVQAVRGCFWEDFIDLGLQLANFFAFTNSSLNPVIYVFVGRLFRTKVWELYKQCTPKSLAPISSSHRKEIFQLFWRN
Description: (§1) Human bradykinin B1 receptor cell line (Product #ES-091-C), Human bradykinin B2 receptor aequorin cell line (Product #ES-090-A), Fluo-4 calcium assay kits (Molecular Probes).
(§2) Agonist for B1 receptor cell line is Lys-[Des-Arg9]-Bradykinin (LDBK) and antagonist is R715. Agonist for B2 receptor cell line is BK (bradykinin) and antagonist is HOE140. All the agonist and antagonist were procured from TOCRIS. Dye loading solution was prepared by adding 10 mL of assay buffer and 100 μL of the probenecid stock solution (provided in the Kit) to one bottle of component A (dye concentrate). 0.4% Triton X-100 (4X) was used as positive control (PC) and was prepared by adding 38 uL of Triton X-100 in 10 mL of working assay buffer (WAB).
(§3) Human bradykinin B1 receptor cell line (B1) and human bradykinin B2 receptor aequorin cell line (B2) was procured from PerkinElmer, Waltham, Mass. B1 cells were cultured and maintained in Ham's F-12 medium (Gibco) supplemented with 10% fetal bovine serum (FBS) (Gibco) and 0.4 mg/ml Geneticin (Gibco) in a humidified incubator at 37° C. with 5% CO2. B2 cells were cultured and maintained in Ham's F-12 medium (Gibco) supplemented with 10% fetal bovine serum (FBS) (Gibco), 0.4 mg/ml Geneticin (Gibco) and 5 μg/ml Puromycin (Gibco) in a humidified incubator at 37° C. with 5% CO2. All the test compounds were weighed and dissolved in DMSO and a stock of 20 mM was prepared and stored at −20° C.
(§4) Bradykinin receptor antagonist screening assay was performed using Fluo-4 calcium assay kits by following the manufacturer's instruction. Briefly, approximately 30,000 of human either B1 or B2 cells were seeded in each well of a 96 black well plate. After 24 h, the growth media was removed and washed with 200 μL of assay buffer provided in the Fluo-4 calcium assay kits. Thereafter, 100 uL of Flu-4 dye-loading solution was added in each well of 96 well plate and incubated it at 37° C. for about 30 min. After about 30 minutes of incubation at room temperature, dye loading solution was removed and washed with 200 μL of WAB (mentioned in materials). Post washing, into 100 uL of WAB, 50 uL of WAB or 50 uL of cell line receptor specific antagonist (mentioned in materials) or test compound dilutions were added in 96 well plate. The plates were incubated for 20 min at room temperature with shaking at 300 rpm. At the end of the incubation time, the plates were inserted into the CLARIOstar microplate reader and % gain was adjusted. Thereafter, the plates were read at Ex/Em=494/516 nm for baseline RFU (Range 1). Thereafter, the microplate reader was paused at 11th cycle and 50 uL of 4× (EC80) cell line specific agonist (mentioned in materials) or PC dilution prepared in WAB was added and manually the plates were shaked for 5 sec. Again, the plates were read at Ex/Em=494/516 nm (Range 2).
(§5) Delta RFU was calculated using the formula:
(§6) Delta RFU=Range 2 avg RFU−Range 1 avg RFU
(§7) Based on the data the IC50 or Percent Inhibition of all the compounds was calculated.
(§8) Note: The above assay was performed using plate (flying) mode function of CLARIOstar.

[2] = target: T2, Human bradykinin B2 receptor aequorin cell line (Homo sapiens, UniProt P30411); test: Bradykinin B2 receptor antagonistic activity by intracellular calcium assay (Fluo-4, BK agonist); type: cell-based; settings: for IC50: human B2 receptor cells, Fluo-4 calcium assay, agonist BK at EC80, with washing step
T2 sequence (P30411 1-391): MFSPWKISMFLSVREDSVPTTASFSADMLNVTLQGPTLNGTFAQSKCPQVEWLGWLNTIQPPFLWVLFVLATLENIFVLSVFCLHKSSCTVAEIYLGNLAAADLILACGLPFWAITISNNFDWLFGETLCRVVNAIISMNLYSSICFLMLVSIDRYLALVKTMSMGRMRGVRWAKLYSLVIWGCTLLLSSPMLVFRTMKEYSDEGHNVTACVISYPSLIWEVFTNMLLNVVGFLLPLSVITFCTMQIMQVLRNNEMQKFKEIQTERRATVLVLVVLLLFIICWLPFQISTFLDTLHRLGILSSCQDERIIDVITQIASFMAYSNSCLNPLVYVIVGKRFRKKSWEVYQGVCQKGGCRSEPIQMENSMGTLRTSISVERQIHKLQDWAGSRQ
Description: as §1, §2, §3, §4, §5, §6, §7, §8

Nc1ccc(/N=N/c2ccc(O)cc2)c(N)n1 [Compound III]
IC50 [1]: 27.1 µM | IC50 [2]: 21.3 µM

Nc1nc(N)c(/N=N/c2ccccc2)cc1O [Compound II]
IC50 [1]: 12.5 µM | IC50 [2]: 13.2 µM

Nc1ccc(/N=N/c2ccccc2O)c(N)n1 [Compound IV]
IC50 [1]: 8.4 µM | IC50 [2]: 10.9 µM

Nc1ccc(/N=N/c2ccccc2)c(N)n1 [Compound I]
IC50 [1]: 32.4 µM | IC50 [2]: 31.9 µM

Nc1nc(N)c(/N=N/c2ccc(O)cc2)cc1O [Compound V]
IC50 [1]: 29.5 µM | IC50 [2]: > 100 µM

HOE-140 [reference compound]
IC50 without washing steps relative to IC50 with washing step [2]: approximately 15 fold

Reference: patent publication US20220317111A1, “BIOASSAY METHOD” (KASHIV BIOSCIENCES, LLC, priority 2021, published 2022)
